One may read the IC50 as the concentration needed to halve the response being measured. Higher therefore signals a need for much substance.

From paper PMC9030223, “MBP-11901 Inhibits Tumor Growth of Hepatocellular Carcinoma through Multitargeted Inhibition of Receptor Tyrosine Kinases” (Cancers, 2022) come the findings set out here.

Holding throughout (test): CCK-8 cell proliferation/cytotoxicity assay
Common to all, as to type: cell-based

Experiment [1] relates to AML12 normal liver cells. The settings on record: Mus musculus, AML12, 24 h, 24 h treatment. The method, then: (§1) Cell proliferation was detected using the Cell Counting Kit-8 (CCK-8, Cat. CK04-13; Dojindo Laboratories, Kumamoto, Japan) according to the manufacturer’s instruction. To evaluate cytotoxicity, cells were seeded in a 96-well plate (FHC, 1 × 10^4 cells/well; Caki-2, PLC/PFR.5, and MCF 10A, 1 × 10^4 cells/well; AML12, HepG2, Hep3B, and Huh-7 1.2 × 10^4 cells/well; HeLa, HEK-293, A549, and PC-3, 1.5 × 10^4 cells/well; HT-29, MCF-7, C6, and NE-4C, 2 × 10^4 cells/well). After attachment and stabilization of cells for 24 h, the medium was switched with fresh containing various concentrations (0, 1, 5, 10, 25, 50, and 100 μM) of MBP-11901, and cells were incubated for 22 h. Next, CCK-8 solution was added to each well, and cells were incubated for another 2 h. Absorbance was then measured at 450 nm using a microplate reader (SpectraMax i3, Molecular Devices, San Jose, CA, USA). The IC50 and log IC50 values were calculated using GraphPad Prism (version 5.02; GraphPad PRISM software Inc. San Diego, CA, USA). All experiments were independently performed 3 times. The graph of log IC50 values represents average values.

Experiment [2] relates to Hep3B. As to conditions: Homo sapiens, 24 h treatment. The method, then:
as §1

Experiment [3] concerns HepG2. As to conditions: Homo sapiens; HepG2, 24 h treatment. Here is the method: as §1
For experiment [4], the system named is Huh-7. As to conditions: Homo sapiens; Huh-7, 24 h treatment. Here is the method: as §1
For experiment [5], the system named is PLC/PRF5. The settings on record: Homo sapiens, PLC-PRF-5; PLC/PRF5, 24 h treatment. The method, then:
as §1

SMILES strings stand for the structures.

Turning to `CNC(=O)c1cc(Oc2ccc(NC(=O)Nc3ccc(Cl)c(C(F)(F)F)c3)cc2)ccn1` [sorafenib, reference compound], the IC50 in experiment [1] was found to be 13.4 ± 2.77 µM; in experiment [2], 3.64 ± 0.99 µM; in experiment [3], 3.85 ± 0.14 µM; in experiment [4] it was 6.47 ± 0.88 µM; in experiment [5] it was 6.81 ± 0.76 µM.
